Here are results for two sequences from patent US20230084978A1, “OPTIMIZATION OF PEPTIDE-MELANIN BINDING” (ASSITANCE PUBLIQUE - HÔPITAUX DE PARIS, priority 2020, published 2023).

Assay [1] in a line: Binding of peptides to synthetic melanin (Tricine-SDS-PAGE analysis). To be noted: for Percentage of peptide binding to melanin, Mel + peptide: L-Dopa polymerized 2 h at pH 8.5 and 60° C. before the peptide was added; for binding of the peptides to melanin (in words), SDS-page analysis: antigen added just after L-Dopa is polymerized in melanin; for Percentage of peptide binding to melanin, Peptide-Mel: peptide mixed with L-Dopa (1/4 gp100, 1/6 EphA2), then 2 hours at pH 8.5 and 60° C. The source says:
The binding of the peptide to the melanin can be verified by Tricine-SDS-PAGE analysis as described in Carpentier; 2017 (op. cit.). Briefly, samples (peptide-Mel or peptide alone) are loaded on acrylamide gels. Following electrophoresis, the gels are stained with Coomassie Brilliant Blue R-250, allowing the quantification of the free peptide in the gel. The binding of peptides to melanin can be expressed as the ratio: [amount of unbound peptide in samples Peptide-Mel/amount of peptides in control samples containing peptides alone.
Peptides were mixed with L-Dopa (weight ratio peptide/L-Dopa=1/4 and 1/6 for gp100 and EphA2, respectively) then incubated for 2 hours at pH 8.5 and 60° C. under agitation to ensure oxygenation of the solution to generate nanoparticles of melanin-bound peptides (Peptide-Mel). Alternatively, L-Dopa alone (0.8 mg/ml) was polymerized into melanin for 2 h at pH 8.5 and 60° C. under agitation, before the peptides (weight ratio peptide/L-Dopa=1/4 and 1/6 for gp100 and EphA2, respectively) were added to the solution (Mel+peptide). Tricine-SDS-PAGE analysis was performed as described in Carpentier; 2017 (op. cit.). Briefly, samples (peptide-Mel or peptide alone) were loaded on acrylamide gels. Following electrophoresis, the gels were stained with Coomassie Brilliant Blue R-250 and imaged with the ChemiDoc XRS+ system (Bio-Rad Laboratory), allowing the quantification of the free peptide in the gel. The binding of peptides to melanin was expressed as the ratio: [amount of unbound peptide in samples Peptide-Mel/amount of peptides in control samples containing peptides alone]
First column (Peptide-Mel): L-Dopa (0.8 mg/ml) was mixed with peptides (weight ratio peptide/L-Dopa=1/4) then incubated for 2 hours at pH 8.5 and 60° C. to generate nanoparticles of melanin-bound peptides. Alternatively (second column; Mel+peptide), L-Dopa alone (0.8 mg/ml) was first polymerized into melanin for 2 h at pH 8.5 and 60° C. under vigorous agitation, before the peptides (weight ratio peptide/L-Dopa=1/4) were added to the solution and incubated for 2 hours at room temperature. In both cases, the percentage of peptides that bound to melanin was then quantified with SPS-page analysis, as described in table 1. (ND=not done)
L-Dopa (0.8 mg/ml) underwent an oxidative polymerization at pH 8.5 in aerobic conditions for 2 hours at 60° C. The reaction mixture was then filtered on a 10 kDa filter, and the retentate containing the synthetic melanin was resuspended at pH 7.5 in phosphate buffer. Peptides were then added (at the weight ratio peptide/L-Dopa=1/4) and the mixture was incubated for various periods of time and or pH. The percentage of peptides that bound to melanin was then quantified with SPS-page analysis, as described in table 1. (ND=not done).
L-Dopa (0.8 mg/ml) underwent an oxidative polymerization at pH 8.5 and 60° C. for 2 hours. The reaction mixture was then filtered on a 10 kDa filter, and the retentate containing the synthetic melanin was resuspended at pH 7.5 in phosphate buffer. Peptides were then added (at the weight ratio peptide/L-Dopa=1/4) and the mixture was incubated for various periods of time. Binding of the peptides was then quantified with SPS-page analysis, as described in table 1. (ND=not done)

The test system of a further assay is C57BL/6 mice. Kind of assay: CTL response (IFNg-SFCs of re-stimulated splenocytes) after subcutaneous immunization. To be noted: antigen added just after polymerization (Mel+peptide) + CpG-28, subcutaneous, 10 μg/mouse, day 8. The format is in vivo. How it is done: FIG. 1: CTL response after subcutaneous immunizations in 5-weeks old, C57BL/6, mice. Peptides (10 μg/mouse) were mixed with L-Dopa (weight ratio peptide/L-Dopa=1/4 and 1/6 for gp100 and EphA2 respectively) and incubated under the above described conditions (see table 1). Phosphorothioate oligonucleotide CpG-28 (5′-[…], SEQ ID NO: 21), were added to vaccine formulations (10 μg/mouse) just before the immunizations. Mice were then immunized sub-cutaneously with gp100-Mel+CpG (“gp100-Mel”), or with previously synthesized melanin mixed with gp100 and CpG (“Mel+gp100”); EphA2-Mel+CpG (“EphA2-Mel”), melanin+EphA2+CpG (“Mel+EphA2”). Mice were sacrificed on day 8 and the CTL response was performed as described in Carpentier; 2017. Briefly, splenocytes were re-stimulated in vitro with the corresponding MHC class 1-epitope (non-conjugated to melanin) and the numbers of IFNg-SFCs (Spot forming cells) were measured and expressed as Mean+/−S.E.M. (n=8 mice/group with pooled data from 2 different experiments of 4 mice each. Student-T test: gp100-Mel vs Mel+gp100: p<0.001; EphA2-Mel vs Mel+EphA2: p<0.001)
FIG. 2: CTL response after subcutaneous immunizations in C57BL/6 mice. […]

For the sequence “KVPRNQDWL (gp100 peptide) [SEQ ID NO: 1, reference compound]”, in assay [1], the “Percentage of peptide binding to melanin, Mel + peptide” value was 23 +/− 8%; the “binding of the peptides to melanin (in words), SDS-page analysis” value is on record as “minimal binding”; the “Percentage of peptide binding to melanin, Peptide-Mel” value is 100 +/− 0%. The “Binding of peptides on synthetic melanin, Mel + peptide 10 minutes” value in assay [1] (filtered preformed melanin at pH 7.5, peptide/L-Dopa 1/4, 10 minutes) is on record as 6%. In addition, in assay [1] (filtered preformed melanin at pH 7.5, peptide/L-Dopa 1/4, 2 hours), the “Binding of peptides on synthetic melanin, Mel + peptide 2 hours” value is 22%. The “Binding of peptides on synthetic melanin, Mel + peptide 18 hours” value in assay [1] (filtered preformed melanin at pH 7.5, peptide/L-Dopa 1/4, 18 hours) was determined as 89%. For the same sequence, in the assay on C57BL/6 mice, the “ability of the vaccine formulation to trigger a CTL (CD8) response” value was “lost”.

Turning to “FSHHNIIRL (EphA2 peptide) [SEQ ID NO: 2, reference compound]”, in assay [1], the “Percentage of peptide binding to melanin, Mel + peptide” value is reported as 9 +/− 6%; the “binding of the peptides to melanin (in words), SDS-page analysis” value was “minimal binding”; the “Percentage of peptide binding to melanin, Peptide-Mel” value was 93 +/− 12%. In addition, the “ability of the vaccine formulation to trigger a CTL (CD8) response” value with C57BL/6 mice is given as “lost”.
